Data from US12343347B2 (Biohaven Pharmaceutical Holding Company Ltd., priority 2012, dated 2025).

Experiments:
[1] = Metabolic stability in pooled mouse liver microsomes; type: in vitro ADME; conditions: mouse liver microsomes 0.5 mg/mL, 1 uM, NADPH, 37° C.
Procedure: (§1) Metabolic Stability: In vitro metabolic stability was determined in pooled mouse or human liver microsomes (BD Gentest) at a protein concentration of 0.5 mg/mL in reaction buffer (100 mM KH2PO4, pH 7.4 and 12 mM MgCl2). Each drug candidate was added to a final concentration of 1 uM. This mixture was pre-warmed to 37° C. for 10 minutes prior to starting the reaction with the addition of β-Nicotinamide adenine dinucleotide 2′-phosphate reduced (NADPH) to a final concentration of 1 mM. A parallel incubation lacking NADPH served as the control. After incubation for 30 min at 37° C., the reactions were quenched by the addition of acetonitrile containing 0.1% formic acid and internal standard, vortex mixed for 2 minutes and centrifuged at 4000 rpm for 10 minutes to pellet the precipitated protein. The resulting supernatant containing the drug candidate and its potential metabolites was diluted 5-fold with water containing 0.1% formic acid and submitted to LC-MS/MS analysis. […]
(§2) LC-MS/MS Analysis: An aliquot from each incubation was analyzed by LC-MS/MS with SRM detection in the positive ionization mode using an ABSciex API 5500 QTrap Mass Spectrometer interfaced via the ABSciex Turbo V IonSpray source (ESI) to an Eksigent ExpressHT LC system. […] A fast gradient, from 15 to 85% organic in 2.5 minutes, with run time of 5.0 minutes, and flow rate of 50 uL/min was utilized. Peak areas were integrated using MultiQuant v2.0 software from ABSciex.

[2] = Metabolic stability in pooled human liver microsomes; type: in vitro ADME; conditions: human liver microsomes 0.5 mg/mL, 1 uM, NADPH, 37° C.
Procedure: as §1, §2

[3] = Plasma stability in fresh human plasma; type: in vitro ADME; conditions: 1 uM, 37° C.
Procedure: (§3) Plasma Stability: Assessment of plasma stability was carried out by individual incubations of drug candidates in fresh mouse or human control plasma at a concentration of 1 uM for 1 hour at 37° C. After which, the samples were de-proteinized by addition of 2 volumes of acetonitrile containing 0.1% formic acid and internal standard, vortex mixed for 2 minutes and centrifuged at 4000 rpm for 10 minutes to pellet precipitated protein. The resulting supernatant containing the drug candidates was diluted 5-fold with water containing 0.1% formic acid and submitted to LC-MS/MS analysis. All determinations were done in triplicate. […]
as §2

[4] = Stability in Simulated Gastric Fluid (SGF); type: in vitro ADME; conditions: SGF:acetonitrile 9:1, 0.01 mg/mL, 37° C.
Procedure: (§4) Stability in Simulated Gastric Fluid (SGF) and Simulated Intestinal Fluid (SIF). Procedure from Baudy et. al. (J. Med. Chem. 2009, 52, 771-778) used. The physiological stability of pro-drugs was determined by examining the stability of the compound in SGF, and SIF at 37° C. The compounds were prepared in a 9:1 mixture of the appropriate test component (SGF, SIF) and acetonitrile to a final concentration of 0.01 mg/mL. The samples were thoroughly mixed and maintained at 37° C. Each sample was injected consecutively onto an Agilent 1100 system (Luna C18, 3 μm, 50 mm×3 mm; 1 mL/min; mobile phase of 0.1% trifluoroacetic acid in water/0.1% trifluoroacetic acid in acetonitrile) after a 3 h period. The percent remaining of pro-drug was calculated by comparing the area of pro-drug compound versus riluzole generated. The identities of the parent compounds and conversion products were confirmed by LC/MS.

[5] = Stability in Simulated Intestinal Fluid (SIF); type: in vitro ADME; conditions: SIF:acetonitrile 9:1, 0.01 mg/mL, 37° C.
Procedure: as §4

[6] = Plasma stability in fresh mouse plasma; type: in vitro ADME; conditions: 1 uM, 37° C.
Procedure: as §3, §2

[7] = system: amyotrophic lateral sclerosis (ALS) patients; conditions: after 1.5 years of treatment; cited from earlier work

SMILES	Metabolic Stability mouse (30 minutes), percent of pro-drug metabolized to riluzole [1]	Metabolic Stability human (30 minutes), percent of pro-drug metabolized to riluzole [2]	Plasma Stability Human (1 hour), percent of pro-drug metabolized to riluzole [3]	SGF (3 hours), percent of pro-drug metabolized to riluzole [4]	SIF (3 hours), percent of pro-drug metabolized to riluzole [5]	Plasma Stability mouse (1 hour), percent of pro-drug metabolized to riluzole [6]	increase of lifespan [7]
CN(C)CCCOC(=O)Nc1nc2ccc(OC(F)(F)F)cc2s1 [Cpd 19, (6-Trifluoromethoxy-benzothiazol-2-yl)-carbamic acid 3-dimethylamino-propyl ester]	71%	0%	0%	0%	0%	0%	
O=C(O)CCC(=O)Nc1nc2ccc(OC(F)(F)F)cc2s1 [Cpd 20, N-(6-Trifluoromethoxy-benzothiazol-2-yl)-succinamic acid]	70%	0%	16%	0%	0%	0%	
COC(=O)CCC(=O)Nc1nc2ccc(OC(F)(F)F)cc2s1 [Cpd 21, N-(6-Trifluoromethoxy-benzothiazol-2-yl)-succinamic acid methyl ester]	77%	34%	25%	3%	0%	99%	
CC(C)(C)OC(=O)CCC(=O)Nc1nc2ccc(OC(F)(F)F)cc2s1 [Cpd 22, N-(6-Trifluoromethoxy-benzothiazol-2-yl)-succinamic acid tert-butyl ester]	0%	21%	0%	0%	0%	0%	
CNCCCCC(=O)Nc1nc2ccc(OC(F)(F)F)cc2s1 [Cpd 25, 5-Methylamino-pentanoic acid (6-trifluoromethoxy-benzothiazol-2-yl)-amide]	78%	0%	0%	0%	0%	0%	
NCCCCC(=O)Nc1nc2ccc(OC(F)(F)F)cc2s1 [Cpd 26, 5-Amino-pentanoic acid (6-trifluoromethoxy-benzothiazol-2-yl)-amide]	66%	19%	5%	0%	0%	0%	
Nc1nc2ccc(OC(F)(F)F)cc2s1 [riluzole, 6-(trifluoromethoxy)-1,3-benzothiazol-2-amine]							2-3 months

Second part, led by results:

Metabolic Stability mouse (30 minutes), percent of pro-drug metabolized to riluzole [1]	Metabolic Stability human (30 minutes), percent of pro-drug metabolized to riluzole [2]	Plasma Stability Human (1 hour), percent of pro-drug metabolized to riluzole [3]	SGF (3 hours), percent of pro-drug metabolized to riluzole [4]	SIF (3 hours), percent of pro-drug metabolized to riluzole [5]	Plasma Stability mouse (1 hour), percent of pro-drug metabolized to riluzole [6]	SMILES	increase of lifespan [7]
0%	4%	0%	0%	10%	26%	O=C(CCC(=O)Nc1nc2ccc(OC(F)(F)F)cc2s1)NCc1cccnc1 [Cpd 23, N-Pyridin-3-ylmethyl-N′-(6-trifluoromethoxy-benzothiazol-2-yl)-succinamide]	
59%	22%	13%	0%	0%	0%	O=C(Cc1ccccc1[N+](=O)[O-])Nc1nc2ccc(OC(F)(F)F)cc2s1 [Cpd 27, 2-(2-Nitro-phenyl)-N-(6-trifluoromethoxy-benzothiazol-2-yl)-acetamide]	
24%	80%	0%	0%	0%	0%	Nc1ccc(C(=O)Nc2nc3ccc(OC(F)(F)F)cc3s2)cc1 [Cpd 28, 4-Amino-N-(6-trifluoromethoxy-benzothiazol-2-yl)-benzamide]	
